In the NIST ThermoML archive (doi:10.1016/j.jct.2012.08.010):
Numbers after ± are expanded uncertainties.

Assay: refractive index (Na D-line) (dimensionless); φn = volume fraction of the nth substance listed
Conditions: 101 kPa, Liquid, Standard Abbe refractometry

C=C[Si]1(C)O[Si](C)(C=C)O[Si](C)(C=C)O[Si](C)(C=C)O1 (stereo not given) [2,4,6,8-tetramethyl-2,4,6,8-tetravinylcycloterasiloxane] + CCc1ccccc1
refractive index
Conditions	288.15 K	298.15 K	308.15 K	318.15 K	328.15 K
φ1 = 0.1306	1.49051 ± 0.00031	–	–	–	–
φ1 = 0.1307	–	1.48523 ± 0.00031	1.47983 ± 0.00031	1.47444 ± 0.00031	1.46899 ± 0.00031
φ1 = 0.2495	1.48332 ± 0.00031	1.47811 ± 0.00031	–	–	–
φ1 = 0.2496	–	–	1.47276 ± 0.00031	1.46745 ± 0.00031	1.46201 ± 0.00031
φ1 = 0.3353	1.47811 ± 0.00031	1.47292 ± 0.00031	–	–	–
φ1 = 0.3354	–	–	1.46765 ± 0.00031	1.46234 ± 0.00031	1.45699 ± 0.00031
φ1 = 0.4168	1.47313 ± 0.00031	1.46801 ± 0.00031	1.46276 ± 0.00031	–	–
φ1 = 0.4169	–	–	–	1.45752 ± 0.00031	1.45223 ± 0.00031
φ1 = 0.4874	1.46879 ± 0.00032	–	–	–	–
φ1 = 0.4875	–	1.4637 ± 0.0003	1.45851 ± 0.00032	1.45331 ± 0.00032	1.44807 ± 0.00032
φ1 = 0.5524	1.46478 ± 0.00032	–	–	–	–
φ1 = 0.5525	–	1.45974 ± 0.00032	1.4546 ± 0.0003	1.44944 ± 0.00032	1.44422 ± 0.00032
φ1 = 0.5993	1.46188 ± 0.00032	–	–	–	–
φ1 = 0.5994	–	1.45688 ± 0.00032	1.4518 ± 0.0003	1.4467 ± 0.0003	1.44159 ± 0.00032
φ1 = 0.6539	1.45851 ± 0.00032	–	–	–	–
φ1 = 0.654	–	1.45353 ± 0.00032	1.44849 ± 0.00032	1.44344 ± 0.00032	1.43836 ± 0.00032
φ1 = 0.699	1.4557 ± 0.0003	1.45075 ± 0.00032	–	–	–
φ1 = 0.6991	–	–	1.44574 ± 0.00032	1.44073 ± 0.00032	1.43564 ± 0.00032
φ1 = 0.7394	1.4532 ± 0.0003	1.44826 ± 0.00032	–	–	–
φ1 = 0.7395	–	–	1.44331 ± 0.00032	1.43832 ± 0.00032	1.4333 ± 0.0003
φ1 = 0.7767	1.45085 ± 0.00032	1.44594 ± 0.00032	1.44103 ± 0.00032	–	–
φ1 = 0.7768	–	–	–	1.43607 ± 0.00032	1.43112 ± 0.00032
φ1 = 0.809	1.44885 ± 0.00032	1.44397 ± 0.00032	1.43906 ± 0.00032	–	–
φ1 = 0.8091	–	–	–	1.43412 ± 0.00032	1.4292 ± 0.0003
φ1 = 0.8409	1.44681 ± 0.00032	1.44197 ± 0.00032	–	–	–
φ1 = 0.841	–	–	1.43711 ± 0.00032	1.43222 ± 0.00032	1.42729 ± 0.00032
φ1 = 0.8663	1.44522 ± 0.00032	1.44039 ± 0.00032	1.43554 ± 0.00032	1.43067 ± 0.00032	1.42578 ± 0.00032
φ1 = 0.8945	1.44344 ± 0.00032	1.43862 ± 0.00032	–	–	–
φ1 = 0.8946	–	–	1.43382 ± 0.00032	1.42898 ± 0.00032	1.42413 ± 0.00032
φ1 = 0.9191	1.44188 ± 0.00032	1.43709 ± 0.00032	1.4323 ± 0.0003	1.42747 ± 0.00032	1.42266 ± 0.00032
φ1 = 0.9412	1.44049 ± 0.00032	1.4357 ± 0.0003	1.43092 ± 0.00032	1.42613 ± 0.00032	1.42133 ± 0.00032
φ1 = 0.9806	1.43796 ± 0.00033	1.43323 ± 0.00033	1.42848 ± 0.00033	1.42373 ± 0.00033	1.41899 ± 0.00033
φ1 = 1	1.43674 ± 0.00033	1.43202 ± 0.00033	1.4273 ± 0.0003	1.42257 ± 0.00033	1.41785 ± 0.00033

C=C[Si]1(C)O[Si](C)(C=C)O[Si](C)(C=C)O[Si](C)(C=C)O1 (stereo not given) [2,4,6,8-tetramethyl-2,4,6,8-tetravinylcycloterasiloxane] + Cc1ccc(C)cc1
Conditions	refractive index
288.15 K, φ1 = 0.13	1.49061 ± 0.00031
288.15 K, φ1 = 0.2483	1.48349 ± 0.00031
288.15 K, φ1 = 0.3379	1.47804 ± 0.00031
288.15 K, φ1 = 0.4151	1.47284 ± 0.00031
288.15 K, φ1 = 0.4853	1.46901 ± 0.00032
288.15 K, φ1 = 0.5501	1.46502 ± 0.00032
288.15 K, φ1 = 0.5978	1.46207 ± 0.00032
288.15 K, φ1 = 0.6522	1.45876 ± 0.00032
288.15 K, φ1 = 0.6974	1.45592 ± 0.00032
288.15 K, φ1 = 0.738	1.45339 ± 0.00032
288.15 K, φ1 = 0.7753	1.45103 ± 0.00032
288.15 K, φ1 = 0.8083	1.44898 ± 0.00032
288.15 K, φ1 = 0.8395	1.44696 ± 0.00032
288.15 K, φ1 = 0.8652	1.44534 ± 0.00032
288.15 K, φ1 = 0.8938	1.44353 ± 0.00032
288.15 K, φ1 = 0.9184	1.44195 ± 0.00032
288.15 K, φ1 = 0.9358	1.44086 ± 0.00032
288.15 K, φ1 = 0.9803	1.43802 ± 0.00033
288.15 K, φ1 = 1	1.43674 ± 0.00033
298.15 K, φ1 = 0.13	1.48533 ± 0.00031
298.15 K, φ1 = 0.2483	1.47825 ± 0.00031
298.15 K, φ1 = 0.338	1.47286 ± 0.00031
298.15 K, φ1 = 0.4151	1.46772 ± 0.00031
298.15 K, φ1 = 0.4854	1.46393 ± 0.00032
298.15 K, φ1 = 0.5501	1.45998 ± 0.00032
298.15 K, φ1 = 0.5979	1.45705 ± 0.00032
298.15 K, φ1 = 0.6522	1.45378 ± 0.00032
298.15 K, φ1 = 0.6975	1.45098 ± 0.00032
298.15 K, φ1 = 0.7381	1.44845 ± 0.00032
298.15 K, φ1 = 0.7754	1.44612 ± 0.00032
298.15 K, φ1 = 0.8084	1.44409 ± 0.00032
298.15 K, φ1 = 0.8396	1.44211 ± 0.00032
298.15 K, φ1 = 0.8653	1.44053 ± 0.00032
298.15 K, φ1 = 0.8939	1.43869 ± 0.00032
298.15 K, φ1 = 0.9185	1.43716 ± 0.00032
298.15 K, φ1 = 0.9358	1.43605 ± 0.00032
298.15 K, φ1 = 0.9803	1.43326 ± 0.00033
298.15 K, φ1 = 1	1.43202 ± 0.00033
308.15 K, φ1 = 0.13	1.47996 ± 0.00031
308.15 K, φ1 = 0.2484	1.47298 ± 0.00031
308.15 K, φ1 = 0.338	1.46767 ± 0.00031
308.15 K, φ1 = 0.4152	1.46256 ± 0.00031
308.15 K, φ1 = 0.4855	1.45883 ± 0.00032
308.15 K, φ1 = 0.5502	1.45494 ± 0.00032
308.15 K, φ1 = 0.5979	1.45204 ± 0.00032
308.15 K, φ1 = 0.6523	1.44878 ± 0.00032
308.15 K, φ1 = 0.6975	1.446 ± 0.001
308.15 K, φ1 = 0.7381	1.44353 ± 0.00032
308.15 K, φ1 = 0.7754	1.44126 ± 0.00032
308.15 K, φ1 = 0.8084	1.4392 ± 0.0003
308.15 K, φ1 = 0.8396	1.43729 ± 0.00032
308.15 K, φ1 = 0.8653	1.4357 ± 0.0003
308.15 K, φ1 = 0.8939	1.43391 ± 0.00032
308.15 K, φ1 = 0.9185	1.43239 ± 0.00032
308.15 K, φ1 = 0.9359	1.43132 ± 0.00032
308.15 K, φ1 = 0.9803	1.42853 ± 0.00033
308.15 K, φ1 = 1	1.4273 ± 0.0003
318.15 K, φ1 = 0.1301	1.47462 ± 0.00031
318.15 K, φ1 = 0.2484	1.46772 ± 0.00031
318.15 K, φ1 = 0.3381	1.46245 ± 0.00031
318.15 K, φ1 = 0.4152	1.45742 ± 0.00031
318.15 K, φ1 = 0.4855	1.45373 ± 0.00032
318.15 K, φ1 = 0.5503	1.4499 ± 0.0003
318.15 K, φ1 = 0.598	1.44702 ± 0.00032
318.15 K, φ1 = 0.6523	1.4438 ± 0.0003
318.15 K, φ1 = 0.6976	1.44108 ± 0.00032
318.15 K, φ1 = 0.7381	1.43861 ± 0.00032
318.15 K, φ1 = 0.7755	1.43636 ± 0.00032
318.15 K, φ1 = 0.8084	1.43432 ± 0.00032
318.15 K, φ1 = 0.8396	1.43244 ± 0.00032
318.15 K, φ1 = 0.8653	1.43087 ± 0.00032
318.15 K, φ1 = 0.8939	1.42911 ± 0.00032
318.15 K, φ1 = 0.9185	1.42761 ± 0.00032
318.15 K, φ1 = 0.9359	1.42653 ± 0.00032
318.15 K, φ1 = 0.9803	1.42379 ± 0.00033
318.15 K, φ1 = 1	1.42257 ± 0.00033
328.15 K, φ1 = 0.1301	1.46923 ± 0.00031
328.15 K, φ1 = 0.2484	1.46244 ± 0.00031
328.15 K, φ1 = 0.3381	1.45725 ± 0.00031
328.15 K, φ1 = 0.4152	1.45229 ± 0.00031
328.15 K, φ1 = 0.4855	1.44864 ± 0.00032
328.15 K, φ1 = 0.5503	1.44483 ± 0.00032
328.15 K, φ1 = 0.598	1.44202 ± 0.00032
328.15 K, φ1 = 0.6523	1.43879 ± 0.00032
328.15 K, φ1 = 0.6976	1.43612 ± 0.00032
328.15 K, φ1 = 0.7382	1.43369 ± 0.00032
328.15 K, φ1 = 0.7755	1.43148 ± 0.00032
328.15 K, φ1 = 0.8085	1.42949 ± 0.00032
328.15 K, φ1 = 0.8396	1.42761 ± 0.00032
328.15 K, φ1 = 0.8653	1.42605 ± 0.00032
328.15 K, φ1 = 0.8939	1.42343 ± 0.00032
328.15 K, φ1 = 0.9185	1.42282 ± 0.00032
328.15 K, φ1 = 0.9359	1.42178 ± 0.00032
328.15 K, φ1 = 0.9803	1.41906 ± 0.00033
328.15 K, φ1 = 1	1.41785 ± 0.00033
